According to ChEMBL document CHEMBL1201862, “PubChem BioAssay data set” (2004):
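Compound exposure: 48 hours, 5 concentrations, 96-well plates. At the GI50, growth is halved.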 Active and inactive are the calls of the source. No stated cut-off is given here; in the data, active = GI50 up to about 1.1 µM and inactive = higher.

Legend:
Test in all cases: NCI anticancer screen, dose series, 48 h
786-0 = tested on: 786-0
A498 = tested on: A498
ACHN = tested on: ACHN
BT-549 = tested on: BT-549
CCRF-CEM = tested on: CCRF-CEM
DU-145 = tested on: DU-145
EKVX = tested on: EKVX
HCT-15 = tested on: HCT-15
Hs-578T = tested on: Hs-578T
LOX IMVI = tested on: LOX IMVI
MDA-MB-231 = tested on: MDA-MB-231
NCI/ADR-RES = tested on: NCI/ADR-RES
OVCAR-4 = tested on: OVCAR-4
RXF 393 = tested on: RXF 393
SK-MEL-28 = tested on: SK-MEL-28
T47D = tested on: T47D
TK-10 = tested on: TK-10
UACC-257 = tested on: UACC-257
UACC-62 = tested on: UACC-62

SMILES	GI50 (786-0)	GI50 (A498)	GI50 (ACHN)	GI50 (BT-549)	GI50 (CCRF-CEM)	GI50 (DU-145)	GI50 (EKVX)	GI50 (HCT-15)	GI50 (Hs-578T)	GI50 (LOX IMVI)	GI50 (MDA-MB-231)	GI50 (NCI/ADR-RES)	GI50 (OVCAR-4)	GI50 (RXF 393)	GI50 (SK-MEL-28)	GI50 (T47D)	GI50 (TK-10)	GI50 (UACC-257)	GI50 (UACC-62)
CCC(=O)N(c1ccccc1)C(C)CN1CCC(O)(c2ccccc2)CC1 (stereo not given)	> 100 µM (inactive)	> 100 µM (inactive)	> 100 µM (inactive)	> 100 µM (inactive)	> 100 µM (inactive)	> 100 µM (inactive)	> 100 µM (inactive)	> 100 µM	> 100 µM (inactive)	> 100 µM (inactive)	> 100 µM (inactive)	> 100 µM (inactive)	> 100 µM (inactive)	> 100 µM (inactive)	> 100 µM (inactive)	> 100 µM (inactive)	> 100 µM (inactive)	> 100 µM (inactive)	> 100 µM (inactive)
CN(C)c1nc(N)c(C#N)c(C#N)c1C#N	> 7.16 µM (inactive)	> 10 µM (inactive)	> 10 µM (inactive)	> 10 µM (inactive)	3.08 µM (inactive)	> 10 µM (inactive)	> 10 µM (inactive)	> 10 µM	> 10 µM (inactive)	> 10 µM (inactive)	> 10 µM (inactive)	> 10 µM (inactive)	> 10 µM (inactive)	> 10 µM (inactive)	> 10 µM (inactive)	> 8.32 µM (inactive)	> 10 µM (inactive)	> 10 µM (inactive)	> 10 µM (inactive)
CCOC(=O)NN(C(=O)OCC)C(C(=O)c1ccccc1)N(NC(=O)OCC)C(=O)OCC	> 100 µM (inactive)	> 100 µM (inactive)	> 100 µM (inactive)	> 100 µM (inactive)	> 100 µM (inactive)	> 100 µM (inactive)	> 100 µM (inactive)	> 100 µM	> 100 µM (inactive)	> 100 µM (inactive)	> 100 µM (inactive)	> 100 µM (inactive)	> 100 µM (inactive)	> 100 µM (inactive)	> 100 µM (inactive)	> 100 µM (inactive)	> 100 µM (inactive)	> 100 µM (inactive)	> 100 µM (inactive)
COc1ccc2c(c1)nc1n2C(N)=Nc2ccccc2S1	9.68 µM (inactive)	37.1 µM (inactive)	29.6 µM (inactive)	48.2 µM (inactive)	2.55 µM (inactive)	35.5 µM (inactive)	28.5 µM (inactive)	35.4 µM	61 µM (inactive)	11.8 µM (inactive)	52.5 µM (inactive)	35.2 µM (inactive)	34.4 µM (inactive)	30 µM (inactive)	> 80.5 µM (inactive)	20.8 µM (inactive)	> 100 µM (inactive)	32.5 µM (inactive)	21 µM (inactive)
O=[N+]([O-])c1ccc(-n2nc3ccc4c(no[n+]4[O-])c3[n+]2[O-])c([N+](=O)[O-])c1	2.68 µM (inactive)	5.45 µM (inactive)	2.45 µM (inactive)	2.67 µM (inactive)	0.938 µM (active)	5.56 µM (inactive)	12.2 µM (inactive)	2.69 µM	2.81 µM (inactive)	1.77 µM (inactive)	2.27 µM (inactive)	3.16 µM (inactive)	1.68 µM (inactive)	3.27 µM (inactive)	2.51 µM (inactive)	2.49 µM (inactive)	2.86 µM (inactive)	1.75 µM (inactive)	2.73 µM (inactive)
O=C1Nc2ccccc2/C1=N/Nc1nc(-c2cccc([N+](=O)[O-])c2)cs1	16.3 µM (inactive)	21.8 µM (inactive)	31.4 µM (inactive)	36.3 µM (inactive)	32.8 µM (inactive)	25.6 µM (inactive)	22.5 µM (inactive)	21.8 µM	20.1 µM (inactive)	20.7 µM (inactive)	17.7 µM (inactive)	15.3 µM (inactive)	21 µM (inactive)	29.5 µM (inactive)	19.5 µM (inactive)	27.3 µM (inactive)	19 µM (inactive)	19.3 µM (inactive)	26.7 µM (inactive)
O=S(=O)(c1cccc(C(F)(F)F)c1)N1c2ccccc2-n2cccc2C1c1cccnc1 (stereo not given)	> 40.6 µM (inactive)	23.3 µM (inactive)	> 46.5 µM (inactive)	9.29 µM (inactive)	8.75 µM (inactive)	> 39.7 µM (inactive)	> 100 µM (inactive)	22 µM	> 47 µM (inactive)	35.5 µM (inactive)	> 36.8 µM (inactive)	5.19 µM (inactive)	24.8 µM (inactive)	> 38.7 µM (inactive)	29.4 µM (inactive)	7.03 µM (inactive)	> 53.8 µM (inactive)	> 36.4 µM (inactive)	13.9 µM (inactive)
COc1cc2c(cc1O)Cc1c-2[n+](C)cc2cc(OC)c(OC)cc12	2.87 µM (inactive)	> 64.1 µM (inactive)	1.5 µM (inactive)	8.11 µM (inactive)	0.407 µM (active)	4.23 µM (inactive)	> 90.8 µM (inactive)	24.4 µM	60 µM (inactive)	5.94 µM (inactive)	> 100 µM (inactive)	6.79 µM (inactive)	> 63.2 µM (inactive)	22.9 µM (inactive)	> 89.9 µM (inactive)	19.1 µM (inactive)	> 88.1 µM (inactive)	> 68.9 µM (inactive)	7.43 µM (inactive)
COc1ccc(-c2cc(=O)c3c(O)cc(O)cc3o2)cc1OC	68.9 µM (inactive)	4.57 µM (inactive)	35.5 µM (inactive)	17.9 µM (inactive)	41.8 µM (inactive)	57 µM (inactive)	83.8 µM (inactive)	> 100 µM	11.5 µM (inactive)	61.8 µM (inactive)	> 100 µM (inactive)	56.8 µM (inactive)	> 100 µM (inactive)	46.3 µM (inactive)	> 100 µM (inactive)	71.9 µM (inactive)	> 100 µM (inactive)	> 100 µM (inactive)	61.4 µM (inactive)
C[C@H]1C2Cc3cc(O)ccc3[C@@]1(C)CCN2CCc1ccc(N)cc1	15.8 µM (inactive)	> 100 µM (inactive)	58.1 µM (inactive)	> 100 µM (inactive)	18.5 µM (inactive)	> 100 µM (inactive)	> 100 µM (inactive)	18.2 µM	> 100 µM (inactive)	14.1 µM (inactive)	34.9 µM (inactive)	25.7 µM (inactive)	55.6 µM (inactive)	52.7 µM (inactive)	18.6 µM (inactive)	80.5 µM (inactive)	> 100 µM (inactive)	18.6 µM (inactive)	> 100 µM (inactive)
CCOP(=O)(CCC(O)CNc1nc(N)nc(Cl)c1/N=N/c1ccc(Cl)cc1)OCC (stereo not given)	7.93 µM (inactive)	10.1 µM (inactive)	7 µM (inactive)	7.38 µM (inactive)	5.75 µM (inactive)	14.2 µM (inactive)	18.8 µM (inactive)	6.95 µM	5.58 µM (inactive)	8.67 µM (inactive)	19.3 µM (inactive)	11.5 µM (inactive)	5.24 µM (inactive)	6.31 µM (inactive)	11.6 µM (inactive)	16.9 µM (inactive)	14.8 µM (inactive)	13.6 µM (inactive)	13 µM (inactive)
COC1=CC(=O)C2=C(C[C@@]3(C)C(=C2)C(CO)=CC[C@H]3O)C1=O	20.7 µM (inactive)	> 100 µM (inactive)	18.2 µM (inactive)	19.2 µM (inactive)	4.04 µM (inactive)	38.9 µM (inactive)	21.8 µM (inactive)	27.5 µM	30.9 µM (inactive)	17.1 µM (inactive)	3.86 µM (inactive)	23.5 µM (inactive)	17.9 µM (inactive)	16.4 µM (inactive)	29.6 µM (inactive)	24.6 µM (inactive)	98.2 µM (inactive)	18.6 µM (inactive)	17.6 µM (inactive)
C/C1=C\CC[C@@]2(C)O[C@@H]2C[C@@H]2[C@H](C/C(C)=C/CC1)OC(=O)[C@]21CO1	> 100 µM (inactive)	> 100 µM (inactive)	> 100 µM (inactive)	> 100 µM (inactive)	46.2 µM (inactive)	> 100 µM (inactive)	> 100 µM (inactive)	> 100 µM	> 100 µM (inactive)	19.6 µM (inactive)	> 100 µM (inactive)	> 100 µM (inactive)	> 100 µM (inactive)	> 100 µM (inactive)	> 100 µM (inactive)	> 100 µM (inactive)	> 100 µM (inactive)	> 100 µM (inactive)	75.5 µM (inactive)
NC(=O)/C=c1/c2ccccc2n2nc3ccccc3c12	8.67 µM (inactive)	32.1 µM (inactive)	13.6 µM (inactive)	29.9 µM (inactive)	3.56 µM (inactive)	37.8 µM (inactive)	14.4 µM (inactive)	12.2 µM	31.2 µM (inactive)	4.78 µM (inactive)	2.76 µM (inactive)	16.1 µM (inactive)	10.3 µM (inactive)	17.1 µM (inactive)	16.8 µM (inactive)	7.01 µM (inactive)	23.3 µM (inactive)	20.3 µM (inactive)	19.4 µM (inactive)
C/C(=N\NC(N)=S)c1nc2cccnc2[nH]1	51.8 µM (inactive)	> 100 µM (inactive)	43 µM (inactive)	24.9 µM (inactive)	31.1 µM (inactive)	63.7 µM (inactive)	50 µM (inactive)	53.6 µM	> 100 µM (inactive)	73.5 µM (inactive)	> 70.1 µM (inactive)	38.5 µM (inactive)	25.6 µM (inactive)	> 100 µM (inactive)	> 88.9 µM (inactive)	45.1 µM (inactive)	> 80.4 µM (inactive)	> 88.5 µM (inactive)	47.2 µM (inactive)
